Source: patent US11319329B2, “Inhibitors of Bruton's tyrosine kinase and methods of their use” (JANSSEN PHARMACEUTICA NV, priority 2015, dated 2022)

Biological target: unphosphorylated-BTK kinase domain (UP-BTK), GST-tagged human BTK (389-659aa) (Homo sapiens (Human), UniProt Q06187)
Assay: BTK kinase Lanthascreen binding assay
Settings: for BTK_I_binding pIC50: negative log of the IC50 in molar, 60 minutes incubation
Description: BTK Kinase Lanthascreen Binding Assay:
A BTK kinase lanthascreen binding assay monitors compound binding to unphosphorylated-BTK kinase domain (UP-BTK), by competing with a fluorescent labeled tracer. […] Data were analyzed using Xlfit™ version 5.3 from ID Business Solutions (Guildford), Microsoft Excel add-in. pIC50 refers to the negative log of the IC50 in molar

[1] = unphosphorylated BTK kinase domain, Lanthascreen

Chain of unphosphorylated-BTK kinase domain (UP-BTK), GST-tagged human BTK (389-659aa) (Q06187 389-659): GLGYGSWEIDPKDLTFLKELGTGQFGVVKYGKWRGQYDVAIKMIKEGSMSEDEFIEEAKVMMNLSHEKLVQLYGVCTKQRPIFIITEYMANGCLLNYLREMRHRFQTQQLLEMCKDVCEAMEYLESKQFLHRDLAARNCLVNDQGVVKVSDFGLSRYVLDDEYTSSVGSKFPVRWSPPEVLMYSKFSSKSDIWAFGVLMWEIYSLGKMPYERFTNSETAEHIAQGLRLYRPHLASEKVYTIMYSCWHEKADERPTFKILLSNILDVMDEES

SMILES	BTK_I_binding pIC50 (50 nM Tracer 236)	also measured
C=CC(=O)N[C@H]1CCC[C@H]1NC(=O)c1sc2nccc3c2c1NC(=O)N3c1ccc(Oc2cccnc2)cc1 (relative stereo) [Example 300, N-((1R,2S)-2-Acrylamidocyclopentyl)-4-oxo-5-(*S)-(4-(pyridin-3-yloxy)phen)-4,5-dihydro-3H-1-thia-3,5,8-triazaacenaphthylene-2-carboxamide]	8.27	
Cc1cc(Oc2ccccc2)ccc1N1C(=O)Nc2c(C(=O)N[C@@H]3CCC[C@H]3O)sc3nccc1c23 (single isomer, unassigned) [Example 4]		BTK_I_binding pIC50 [1]: 7.73
Cc1cc(Oc2ccccc2)ccc1N1C(=O)Nc2c(C(=O)N[C@H]3CC[C@H](O)CC3)sc3nccc1c23 (single isomer, unassigned) [Example 85, N-((1R,4R)-4-Hydroxycyclohexyl)-5-(*S)-(2-methyl-4-phenoxyphenyl)-4-oxo-4,5-dihydro-3H-1-thia-3,5,8-triazaacenaphthylene-2-carboxamide]		IC50 (read-out: BTK_I_binding pIC50 (converted)): 21.4 nM
C=CC(=O)NC1CCCC[C@H]1NC(=O)c1sc2nccc3c2c1NC(=O)N3c1cnc(OCC(C)C)cc1C (single isomer, unassigned) [Example 352, N-((1R,2S)-2-Acrylamidocyclohexyl)-5-(*R)-(6-isobutoxy-4-methylpyridin-3-yl)-4-oxo-4,5-dihydro-3H-1-thia-3,5,8-triazaacenaphthylene-2-carboxamide]	<6	
CCC(=O)N[C@H]1CCC[C@H]1NC(=O)c1sc2nccc3c2c1NC(=O)N3c1ccc(Oc2ccccc2)nc1C (single isomer, unassigned) [Example 353, 5-(*S)-(2-Methyl-6-phenoxypyridin-3-yl)-4-oxo-N-((1R,2R)-2-propionamidocyclopentyl)-4,5-dihydro-3H-1-thia-3,5,8-triazaacenaphthylene-2-carboxamide]	<6	
C=CC(=O)N[C@H]1CCCC[C@H]1NC(=O)c1sc2nccc3c2c1NC(=O)N3c1cnc(CC(C)C)cc1C (single isomer, unassigned) [Example 357, N-((1R,2S)-2-Acrylamidocyclohexyl)-5-(*S)-(6-isobutyl-4-methylpyridin-3-yl)-4-oxo-4,5-dihydro-3H-1-thia-3,5,8-triazaacenaphthylene-2-carboxamide]	7.98	
Cc1cc(Oc2ccccc2)ccc1N1C(=O)Nc2c(C(=O)N[C@H]3CCCC[C@@H]3NC=O)sc3nccc1c23 [Example 54, N-((1S,2S)-2-Formamidocyclohexyl)-5-(2-methyl-4-phenoxyphenyl)-4-oxo-4,5-dihydro-3H-1-thia-3,5,8-triazaacenaphthylene-2-carboxamide]		BTK_I_binding pIC50 [1]: 5.90
